The results in this text go back to patent US5101072A, “Sulfonylhydrazines and their use as antineoplastic agents and as antitrypanosomal agents” (Yale University, priority 1989, dated 1992).

The subject of one series is L1210 leukemia. Nature of the series: Survival time of mice bearing the L1210 leukemia. The format is in vivo. The note with it: for 60-day cures, % / % T/C (average survival time of treated/control animals × 100): L1210, at optimum effective daily dose, once daily × 6 days. The method, then: The tumor-inhibitory properties of several compounds, e.g., 1,2-bis(methylsulfonyl)-1-methylhydrazine, 1-methyl-1,2,2-tris(methylsulfonyl)hydrazine, 1,2-bis(methylsulfonyl)-1,2-dimethylhydrazine and 1-(2-chloroethyl)-1,2,2-tris(methylsulfonyl)hydrazine were determined by measuring the effects of these agents on the survival time of mice bearing the L1210 leukemia as described by K. Shyam, L. A. Cosby, and A. C. Sartorelli, J. Med. Chem., 28, 525-527 (1985).
^a Administered once daily for 6 consecutive days, beginning 24 hours
after tumor transplantation with 5-10 animals being used per group.
^b Average change in body weight from onset to termination of therapy
^c % T/C = average survival time of treated/control animals ×

Series [1] has as its system T. rhodesiense (Y Tat 1.1). Nature of the series: Survival time of CD-1 mice infected with T. rhodesiense (trypanocidal activity). The format is in vivo, T. rhodesiense (Y Tat 1.1); CD-1 mice. Conditions: for Mean Extension of Life (Table III): administered in 0.05 ml of DMSO, dose not given. The method, then: The trypanocidal properties of several methylating agents including MeSO2 N(Me)N(SO2 Me)2 and MeSO2 N(Me)N(Me)SO2 Me were determined by measuring their effects on the survival time of CD-1 mice infected with T. rhodesiense (Y Tat 1.1), a pleimorphic strain that produces a non-relapsing disease in mice. The level of parasites in the bloodstream and body fluids increases by approximately 10-fold per day and the animals die when the parasite burden exceeds 1 to 2×10^9 cells/ml. Infection with a single viable parasite will kill a mouse in approximately 9 to 10 days.
Mice were infected ip with approximately 10^6 trypanosomes/mouse in phosphate buffered saline containing glucose. This level of parasites produces death in 4 days post-infection. These mice were treated (ip) with a single dose of drug dissolved in the appropriate vehicle 3 days after infection, when the parasitemia was 1 to 3×10^8 cells/ml of blood and the mice, if untreated, would survive for only 24 additional hours. The number of days the mice survived beyond that of the untreated controls was used as a measure of trypanocidal activity. The level of parasitemia in treated mice was measured at regular intervals to distinguish between parasite-related and drug toxicity-related deaths. No toxic deaths were observed. Mice that survived for 30 days without detectable parasitemias were considered cured. The effects of a single dose of various methylating agents on the survival time of trypanosome-bearing mice are summarized in Table II.
^a Drug that was administered was dissolved in 0.5 ml of phosphate
buffered saline containing glucose.
^b Drug that was administered was dissolved in 0.05 ml of DMSO.

The next series relates to T. rhodesiense. Nature of the series: Oral trypanocidal activity (preliminary). The format is in vivo, T. rhodesiense; mice. Conditions: aqueous solutions, preliminary results. An excerpt: Orally active trypanocidal agents are desirable since, in areas where trypanosomiasis is endemic, other routes of drug administration frequently present problems.
Series [2] is described as follows: Hydrolysis / decomposition in aqueous solution. The format is physicochemical. The note with it: 50 μM solution, phosphate buffered saline (pH 7.6), 37° C. Here is the method: In the case of 1,2,2-tris(methylsulfonyl)-1-methylhydrazine, this reaction occurs slowly. A 50 μM solution of this compound hydrolyzes at an initial rate of 1% per minute in phosphate buffered saline (pH 7.6) at 37° C.
Hydrolysis is expected to occur preferentially at N-2 to generate the 1,2-bis(sulfonyl)-1-methylhydrazine. The sulfonic acid and 1,2-bis(sulfonyl)-1-methylhydrazine that are generated are both ionized under these conditions. The release of protons can be used to follow the decomposition of these and related compounds. The release of protons can be assayed by following the decrease in absorbance at 560 nm of a weakly buffered (1 mM potassium phosphate) phenol red (21 mg/l) solution; initial pH 7.6 at 37° C. The assay can be calibrated using HCl standards.
(§1) The reaction of 1,2-bis(sulfonyl)-1-methylhydrazine with water at pH 7.4-7.6 at 37° C. can be followed by proton release and/or methanol generation. Methanol generation can be assayed using alcohol oxidase and measuring the resultant O2 consumption using a Gilson oxygraph. This assay can be calibrated using methanol standards. The reaction of 1,2-bis(sulfonyl)-1-methylhydrazine with water is relatively fast [a 50 μM solution of 1,2-bis(methylsulfonyl)-1-methylhydrazine decomposes at an initial rate of 12-15% per minute in phosphate buffered saline (pH 7.6) at 37° C.] compared to the hydroylsis of 1,2,2-tris(methylsulfonyl)-1-methylhydrazine. RSO2 N=NMe may also decompose by a free radical mechanism to a smaller extent and methylate by the generation of methyl radicals.

Series [3] in a line: Methanol generation in vitro (spontaneous breakdown to generate reactive methyl groups). The format is physicochemical. The note with it: relative; PhSO2 N(Me)NHSO2 Ph = 1.0. The method, then:
as §1
Methanol was produced by these agents in aqueous solutions free from strong competing nucleophiles. Formation of this alcohol was used as a measure of the rate of spontaneous breakdown of these compounds to generate reactive methyl groups. […] These findings provide strong evidence that methylation is essential for the observed biological activity of these compounds.

Setting [4] is: mice bearing L1210, at optimum effective daily dose.
[5] abbreviates: single ip dose 0.2 mmol/kg in 0.5 ml phosphate buffered saline containing glucose.
Setting [6] is: single ip dose 0.2 mmol/kg in 0.05 ml of DMSO.

Molecules are shown by their SMILES.

For the compound `CS(=O)(=O)N(N(CCCl)S(=O)(=O)c1ccc(Br)cc1)S(C)(=O)=O` [Br-4-C6 H4 SO2 N(CH2 CH2 Cl)N(SO2 Me)2, 2,2-Bis(methylsulfonyl)-1-[(4-bromophenyl)sulfonyl]-1-(2-chloroethyl)hydrazine], in the series on L1210 leukemia, the “60-day cures, %” value came to 60% and the “% T/C (average survival time of treated/control animals × 100)” value turned out to be 241%. Moreover, in the series on L1210 leukemia (setting [4]), the “AvΔ Wt, % (average change in body weight from onset to termination of therapy)” value is “+0.9%”.
On to `CS(=O)(=O)N(N(CCCl)S(=O)(=O)c1ccccc1)S(C)(=O)=O` [C6 H5 SO2 N(CH2 CH2 Cl)N(SO2 Me)2, 2,2-bis(methylsulfonyl)-1-(2-chloroethyl)-1-phenylsulfonylhydrazine], for which, in the series on L1210 leukemia, the “60-day cures, %” value is 40% and the “% T/C (average survival time of treated/control animals × 100)” value is on record as 187%. Further, in the series with L1210 leukemia (setting [4]), the “AvΔ Wt, % (average change in body weight from onset to termination of therapy)” value is “+0.5%”.
In the same order, the values of `CS(=O)(=O)N(N(CCCl)S(=O)(=O)c1ccc(Cl)cc1)S(C)(=O)=O` [Cl-4-C6 H4 SO2 N(CH2 CH2 Cl)N(SO2 Me)2, 2,2-Bis(methylsulfonyl)-1-(2-chloroethyl)-1-[(4-chlorophenyl)sulfonyl]hydrazine] are 60%, 203% and -3.4%.
Regarding `CN(C)N=Nc1[nH]cnc1C(N)=O` [DTIC, 5-(3,3-dimethyl-1-triazenyl)-1H-imidazole-4-carboxamide], the “Mean Extension of Life” value in series [1] (setting [5]) was 6.0 days.
In the case of `CCOS(=O)(=O)OCC` [Et2 SO4], the “Mean Extension of Life” value in series [1] (setting [6]) amounted to 0 days.
On to `CCNNCC` [EtNHNHEt], for which the “Mean Extension of Life” value in series [1] (setting [5]) turned out to be 0 days.
On to `COS(=O)(=O)OC` [Me2 SO4], for which the “Mean Extension of Life” value in series [1] (setting [6]) turned out to be 3.0 days.
Regarding `Cc1ccc(S(=O)(=O)N(CCCl)N(S(C)(=O)=O)S(C)(=O)=O)cc1` [Me-4-C6 H 4 SO2 N(CH2 CH2 Cl)N(SO2 Me)2, 2,2-bis(methylsulfonyl)-1-(2-chloroethyl)-1-(4-toluenesulfonyl)hydrazine], in the series with L1210 leukemia, the “60-day cures, %” value is reported as 60% and the “% T/C (average survival time of treated/control animals × 100)” value stood at 215%. In the series with L1210 leukemia (setting [4]), the “AvΔ Wt, % (average change in body weight from onset to termination of therapy)” value is reported as -12.0%.
For the compound `CNN` [MeNHNH2, methylhydrazine], the “Mean Extension of Life” value in series [1] (single ip dose 0.5 mmol/kg in 0.5 ml phosphate buffered saline containing glucose) turned out to be 1 days.
As for `CNNC` [MeNHNHMe, 1,2-dimethylhydrazine], the “Mean Extension of Life” value in series [1] (setting [5]) stood at 4.3 days.
Regarding `COc1ccc(S(=O)(=O)N(CCCl)N(S(C)(=O)=O)S(C)(=O)=O)cc1` [MeO-4-C6 H4 SO2 N(CH2 CH2 Cl)N(SO2 Me)2, 2,2-Bis(methylsulfonyl)-1-(2-chloroethyl)-1-[(4-methoxyphenyl)sulfonyl]hydrazine], in the series with L1210 leukemia, the “60-day cures, %” value amounted to 100%. Further, in the series on L1210 leukemia (setting [4]), the “AvΔ Wt, % (average change in body weight from onset to termination of therapy)” value is “+5.9%”.
Turning to `CS(=O)(=O)N(CCBr)N(S(C)(=O)=O)S(C)(=O)=O` [MeSO2 N(CH2 CH2 Br)N(SO2 Me)2, 1-(2-bromoethyl)-1,2,2-tris(methylsulfonyl)hydrazine], in the series with L1210 leukemia, the “60-day cures, %” value stood at 0% and the “% T/C (average survival time of treated/control animals × 100)” value stood at 213%. The “AvΔ Wt, % (average change in body weight from onset to termination of therapy)” value in the series on L1210 leukemia (setting [4]) was -2.0%.
In the same order, the values of `CS(=O)(=O)N(CCI)N(S(C)(=O)=O)S(C)(=O)=O` [MeSO2 N(CH2 CH2 I)N(SO2 Me)2, 1-(2-iodoethyl)-1,2,2-tris(methylsulfonyl)hydrazine] are 0%, 110% and “+8.0%”.
Take `CS(=O)(=O)OCCN(N(S(C)(=O)=O)S(C)(=O)=O)S(C)(=O)=O` [MeSO2 N(CH2 CH2 OSO2 Me)N(SO2 Me)2, 1-(2-methylsulfonyloxy)ethyl-1,2,2-tris(methylsulfonyl)hydrazine]: in the series with L1210 leukemia, the “60-day cures, %” value was 0% and the “% T/C (average survival time of treated/control animals × 100)” value was found to be 198%. Also, in the series on L1210 leukemia (mouse, in vivo), the “AvΔ Wt, % (average change in body weight from onset to termination of therapy)” value is on record as -4.2%.
For `CN(N(C)S(C)(=O)=O)S(C)(=O)=O` [MeSO2 N(Me)N(Me)SO2 Me, 1,2-Bis(methylsulfonyl)-1,2-dimethylhydrazine], in the series with L1210 leukemia, the “60-day cures, %” value stood at 0% and the “% T/C (average survival time of treated/control animals × 100)” value was found to be 158%. The “AvΔ Wt, % (average change in body weight from onset to termination of therapy)” value with L1210 leukemia (mouse, in vivo) is -11.3%. For the same compound, the “cure (30 days without detectable parasitemias)” value in series [1] (setting [6]) was 25%. The “Mean Extension of Life for relapsing animals” value in series [1] (single ip dose 0.2 mmol/kg in 0.05 ml of DMSO, relapsing animals) worked out at 9.7 days. Moreover, in the series on T. rhodesiense, the “Trypanocidal activity on oral administration compared with Table II” value is recorded as “comparable activity to that reported in Table II”.
Consider `CN(N(S(C)(=O)=O)S(C)(=O)=O)S(C)(=O)=O` [MeSO2 N(Me)N(SO2 Me)2, 1-Methyl-1,2,2-tris(methylsulfonyl)hydrazine], for which, in the series on L1210 leukemia, the “60-day cures, %” value turned out to be 0% and the “% T/C (average survival time of treated/control animals × 100)” value was 186%. Moreover, the “AvΔ Wt, % (average change in body weight from onset to termination of therapy)” value with L1210 leukemia (mouse, in vivo) is on record as -7.7%. Besides, the “Mean Extension of Life” value in series [1] (setting [6]) worked out at 7.7 days. Moreover, the “cure (30 days without detectable parasitemias)” value in series [1] (single ip dose 1.0 mmol/kg in 0.05 ml of DMSO) was 100%. Moreover, the “Initial rate of hydrolysis / decomposition” value in series [2] is 1 % per minute. Further, in the series on T. rhodesiense, the “Trypanocidal activity on oral administration compared with Table II” value is given as “comparable activity to that reported in Table II”.
With `COc1ccc(S(=O)(=O)NN(C)S(C)(=O)=O)cc1` [MeSO2 N(Me)NHSO2 C6 H4 -p-OMe], the “Mean Extension of Life” value in series [1] (setting [6]) came out at 4.5 days.
On the same count and under the same terms, the figure for `COS(C)(=O)=O` [MeSO2 OMe] is 1.0 days.
For the compound `CN(N=O)C(N)=O` [N-Methyl-N-nitrosourea], in series [1] (setting [6]), the “Mean Extension of Life” value was 8.0 days.
Consider `CN(NC(=O)c1ccccc1)C(=O)c1ccccc1` [PhCON(Me)NHCOPh], for which the “Mean Extension of Life (Table III)” value in series [1] stood at 0 days. The “Relative Methanol Generation in vitro” value in series [3] turned out to be 0.
For the compound `CN(NS(=O)(=O)c1ccccc1)S(=O)(=O)c1ccccc1` [PhSO2 N(Me)NHSO2 Ph], the “Mean Extension of Life (Table III)” value in series [1] was determined as 5 days. In series [1] (setting [6]), the “Mean Extension of Life” value is 5.0 days. Also, in series [3], the “Relative Methanol Generation in vitro” value turned out to be 1.0.
Turning to `O=S(=O)(NNS(=O)(=O)c1ccccc1)c1ccccc1` [PhSO2 NHNHSO2 Ph], in series [1], the “Mean Extension of Life (Table III)” value was determined as 0 days. Also, in series [3], the “Relative Methanol Generation in vitro” value is listed as 0.
With `CNNCc1ccc(C(=O)NC(C)C)cc1` [Procarbazine, procarbazine], in series [1] (setting [5]), the “Mean Extension of Life” value came to 5.0 days.
In the case of `CN(N=O)C(=O)N[C@H]1C(O)O[C@H](CO)[C@@H](O)[C@@H]1O` (stereo partly drawn) [Streptozotocin, streptozotocin], the “Mean Extension of Life” value in series [1] (setting [5]) was 4.3 days.
